From article PMC6130578, “Isolation and identification of three new chromones from the leaves of Pimenta dioica with cytotoxic, oestrogenic and anti-oestrogenic effects” (Pharmaceutical Biology, 2018)

Key:
NCI-N87 cells = assay: Cell viability assay (CellTiter-Glo 2.0), NCI-N87; format: cell-based; details: Homo sapiens, NCI-N87, 72 h; read-out: IC50 (cell growth)
Method: (§1) MCF-7 and AGS cells were seeded at 2.5 × 10^4 cells in 100 µL/well while NCI-N87 was seeded at 5.0 × 10^4 cells in 100 µL/well in opaque-walled 96-well plate. Control wells containing medium (supplemented with 10% FBS and 1% penicillin/streptomycin) without cells to determine background luminescence were also prepared. The cells were left to attach overnight in the plate. Culture medium was aspirated and fresh medium added to the wells before reconstituted extracts of P. dioica (methanol extract, 50% methanol fraction) and isolated compounds (1–3, and quercitrin) at 100, 50, 20, 10 and 5 µg/mL were added to experimental wells. Drug controls (5-fluorouracil and doxorubicin) and vehicle control (0.02% DMSO) wells were also prepared simultaneously, and the plate was incubated in a humidified incubator at 37 °C in an atmosphere of 5% CO2 for 72 h. At the end of the incubation period, the plate and its contents were equilibrated to room temperature for approximately 30 min. A 100 µL volume of CellTiter-Glo 2.0 Reagent (Promega Corporation, Madison, WI) was added to each well. The contents were mixed for 2 min on an orbital shaker to induce cell lysis and the plate was incubated at room temperature for 10 min to stabilize the luminescent signal. Luminescence signal was read using the Synergy HT Plate reader (Biotek, Winooski, VT) and Gen5 1.11 software. The IC50 defined as the concentration that causes 50% inhibition of cell growth after exposure to extract for 72 h was calculated using log (inhibitor) vs. normalized response analysis with GraphPad Prism 7 (GraphPad Software, Inc., La Jolla, CA).

AGS cells = assay: Cell viability assay (CellTiter-Glo 2.0), AGS; format: cell-based; details: Homo sapiens, 72 h, read-out: IC50 (cell growth)
Method: as §1

MCF-7 cells [1] = assay: Cell viability assay (CellTiter-Glo 2.0), MCF-7; format: cell-based; details: Homo sapiens, MCF7; MCF-7, 72 h; read-out: IC50 (cell growth)
Method: as §1

[2] = tested on: oestrogen responsive SEAP reporter gene (ERE) in MCF-7 cells; assay: Oestrogen-responsive SEAP reporter gene assay in transfected MCF-7 cells; format: cell-based, human; details: for SEAP activity in combination with E2: 1 μM compound + 10 nM E2; for fold increase in SEAP expression / SEAP reporter gene expression/activity, compound alone: 1 μM; for fold increase in SEAP expression: compound alone; for SEAP reporter gene expression/activity, compound alone: vs. control
Method: In addition to the ERβ binding assay, oestrogenic activity was determined by an oestrogen-responsive reporter gene assay consisting of MCF-7 cells transfected with a construct containing a secreted alkaline phosphatase (SEAP) gene that is induced through an oestrogen response element (ERE). MCF-7 (HTB-22) human breast cancer cells (obtained from American Type Culture Collection, Manassas, VA) were maintained in Dulbecco’s modified Eagle’s medium containing 10% FBS and 100 U/mL penicillin and 100 μg/mL streptomycin in 75 cm^2 flasks. Forty-eight hours prior to transfection, the cells were maintained in phenol red free DMEM medium supplemented with 0.5% FCS, in a humidified atmosphere with 5% CO2 at 37 °C. For transfection, 0.5 × 10^5 cells were seeded per well of a 96-well plate in OPTI-MEM supplemented with dextran-charcoal stripped FBS. After 4 h, serum concentration was reduced to 1%. Prior to transfection, cells were washed with DMEM and incubated in phenol red-free OPTI-MEM without FBS as described by Nozawa et al. ([2005]).
The cells were transfected with the reporter vector pERE-TA-SEAP, coding for the SEAP gene (Clontech, Palo Alto, CA) (Cullen and Malim [1992]; Treeck et al. [2003]). MCF-7 cells were transfected using 0.5 μL Lipofectamine 2000 (Invitrogen, Carlsbad, CA), and 0.1 μg plasmid DNA including the SEAP vector per well of a 96-well plate according to the manufacturer’s instructions. As a negative control, cells were transfected with reporter vector pTA-SEAP2 using Lipofectamine 2000. After 12 h of transfection, the media were replaced with phenol-free Dulbecco’s modified Eagle’s medium containing 10% dextran-coated charcoal stripped FBS. Cells were treated with 1 μM 1–3 with and without 10 nM E2 or 1 μM ICI 182,780. Estradiol was used as the positive control and DMSO as the negative control. Cells were treated for 12 h, then the medium was harvested, centrifuged and 25 μL from each well was transferred to a new 96 well plate. The SEAP activity was measured using the Great EscAPe SEAP Chemiluminescence High-Throughput Detection Kit (Clontech, Palo Alto, CA) using a 96-well luminometer according to the manufacturer’s instructions. To assess novel mechanisms of action other than ER, we tested the extract and fractions in a HER2/neu tyrosine kinase assays (Barbacci et al. [2003]; HTScan HER2/ErbB2 kinase Assay Kit, Cell Signaling Tech., 96-well plates, high throughput), using the methods as described by the manufacturer.

full-length ERβ = target: T1, full-length ERβ (Homo sapiens, UniProt Q92731); assay: Competitive radioligand oestrogen receptor binding assay (3H-estradiol); details: 0.5 nM 3H-estradiol; tested at 20–100 μg/mL
T1 construct: host or cells: Sf9 insect cells
Method: A competitive radioligand-binding assay using full-length ERβ was used in the bioassay-guided fractionation of the crude methanol extract. The assay was performed as previously described (Obourn et al. [1993]; Doyle et al. [2009]). Briefly, recombinant human oestrogen receptor from insect Sf9 cells (α or β) was incubated with the test sample (50 μg/mL) plus 0.5 nM 3H-estradiol at 4 °C overnight. At the completion of incubation, 100 μL of a 50% hydroxylapatite slurry (in […] Tris, pH 7.4, 1 mM EDTA, 1 mM EGTA) was added and allowed to bind the ER-ligand complex for 40 min. The hydroxylapatite was washed three times with 0.5 mL of 40 mM Tris, pH 7.4, 1 mM EDTA, 1 mM EGTA and 11 mM KCl. The hydroxylapatite pellets were suspended in 1 mL of ethanol and counted in 5 mL of scintillation fluid, and the receptor-bound 3H-estradiol was measured. […] The median inhibitory concentration of 1 was determined by testing at concentrations of 20–100 μg/mL. All tests were performed in triplicate, and the results were determined from three independent experiments.

caspase 8 in MCF-7 cells = assay: Caspase-Glo 8 apoptosis assay in MCF-7 cells; format: cell-based, human; details: compound 2 at IC50 concentration (55 µg/mL), 2 h
Method: MCF-7 cells were seeded in triplicate at a density of 3.0 × 10^4 cells in 100 µL/well in opaque-walled 96-well plates. The cells were left to attach overnight in the plate. Compound 2 at 55 µg/mL was added to the test wells. Caspase-Glo® 8 Reagents (Promega Corporation, Madison, WI) were prepared according to manufacturer’s instruction and allowed to equilibrate to room temperature. The test plates containing treated cells as well as controls were removed from the incubator after 2 h of incubation and allowed to equilibrate to room temperature. A 100 μL volume of Caspase-Glo® 8 Reagent was added to each well of a 96-well plate containing 100 μL of cell culture medium (blank), non-treated cells (negative control) in culture medium, and treated cells in culture medium. The contents of wells were gently mixed using a plate shaker at 300–500 rpm for 30 s and incubated at room temperature for 1 h. The luminescence of each sample was read using the Synergy HT Plate reader (Biotek, Winooski, VT) and Gen5 1.11 software.

[3] = tested on: Bcl-2 and Bax mRNA in MCF-7 cells; assay: qPCR for apoptotic gene expression in MCF-7 cells; format: cell-based, human; details: MCF-7, at the IC50, 24 h
Method: MCF-7 cells were seeded at a density of 1 × 10^6 cells per well in a six-well plate and incubated overnight for cell attachment. […] Vehicle-treated control cells served as the negative control. The concentration and quality of RNA were determined by measuring absorbance at 260 nm and 280 nm on SynergyHT Take 3 session (Biotek, Winooski, VT) and Gen5 1.11 software.
Total RNA was reverse transcribed and amplified using Power SYBR Green RNA-to-CT 1-step kit (Applied Biosystems, Foster City, CA) as described by manufacturer using a Step-One Plus Real Time PCR System (Applied Biosystem, Foster City, CA). Briefly, each reaction was performed in triplicate in a 10 μL volume containing Power SYBR Green RT-PCR Mix (2×), 200 nM of each primers, RT Enzyme Mix (125×) and 100 ng RNA. The cycling conditions were as follows: 48 °C for 30 min, 95 °C for 10 min, followed by 50 cycles of 95 °C for 15 s and 60 °C for 1 min. PCR reaction specificity was confirmed by melt curve analysis at 95 °C for 15 s, 60 °C for 15 s, 95 °C for 15 s. The quantitation of gene expression was performed using β-actin as an endogenous control and relative to the calibrator (control cells) using the ΔΔCt method. Melting curves for each primer set were performed prior to the use of the primers.

MCF-7 cells [4] = assay: ApoTox-Glo triplex assay (viability, cytotoxicity, caspase 3/7) in MCF-7 cells; format: cell-based, human; details: MCF-7, 55 µg/mL
Method: Ninety-six (96) well assay plates containing MCF-7 cells in medium at a density of 1.0 × 10^4 cells in 100 µL/well in triplicate were set up. […] Plates were incubated appropriately before addition of 20 μL of viability/cytotoxicity reagent containing both GF-AFC substrate and bis-AAF-R110 substrate to all wells and briefly mixed by orbital shaking (300–500 rpm for ∼30 s). Plates were incubated for 30 min at 37 °C and fluorescence was measured at 400ex/505em (viability) and 485ex/520em (cytotoxicity). A 100 μL volume of Caspase-Glo® 3/7 reagent was added to all wells, briefly mixed by orbital shaking (300–500 rpm for ∼30 s), and incubated for 30 min at room temperature. Luminescence was measured using the Synergy HT Plate reader (Biotek, Winooski, VT) and Gen 5 1.11 software to detect caspase activation.

T1 sequence (Q92731 whole entry): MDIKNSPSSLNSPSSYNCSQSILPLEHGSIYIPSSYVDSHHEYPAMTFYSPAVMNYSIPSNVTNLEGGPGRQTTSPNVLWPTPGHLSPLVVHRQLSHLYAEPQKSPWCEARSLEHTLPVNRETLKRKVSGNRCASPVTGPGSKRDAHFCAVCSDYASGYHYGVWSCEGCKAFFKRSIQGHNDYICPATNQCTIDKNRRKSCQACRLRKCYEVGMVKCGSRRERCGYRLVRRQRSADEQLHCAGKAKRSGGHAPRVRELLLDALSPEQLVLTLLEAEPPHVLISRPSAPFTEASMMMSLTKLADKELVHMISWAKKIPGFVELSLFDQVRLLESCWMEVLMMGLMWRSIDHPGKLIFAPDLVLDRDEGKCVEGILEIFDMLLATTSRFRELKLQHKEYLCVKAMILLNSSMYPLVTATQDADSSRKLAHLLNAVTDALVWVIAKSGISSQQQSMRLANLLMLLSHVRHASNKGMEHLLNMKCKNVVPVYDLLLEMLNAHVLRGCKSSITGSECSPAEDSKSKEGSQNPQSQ

| SMILES | IC50 (AGS cells) | IC50 (MCF-7 cells [1]) | IC50 (full-length ERβ) | IC50 (NCI-N87 cells) | SEAP activity in combination with E2 [2] | SEAP expression in the presence of ICI 182,780 ([2]; 1 μM compound + 1 μM ICI 182,780) | fold increase in SEAP expression [2] | SEAP reporter gene expression/activity, compound alone [2] | caspase 8 activity (caspase 8 in MCF-7 cells) | Bax mRNA expression [3] | Bax/Bcl-2 ratio [3] | Bcl-2 mRNA expression [3] | apoptosis in MCF-7 cells (MCF-7 cells [4]) |
| --- | --- | --- | --- | --- | --- | --- | --- | --- | --- | --- | --- | --- | --- |
| COc1cccc2c1C(=O)c1c(O)c3c(c(O)c1C2=O)C[C@@](O)(C(=O)CO)C[C@@H]3O[C@H]1C[C@H](N)[C@H](O)[C@H](C)O1 [Doxo, doxorubicin, reference compound] | 0.079 µg/mL | – | – | 0.048 µg/mL | – | – | – | – | – | – | – | – | – |
| Cc1c(O)c(C)c2oc(-c3ccc(OC4OC(CO)C(O)C(O)C4O)cc3)cc(=O)c2c1O (stereo not shown) [Compound 2, syzalterin-4′-O-glucopyranose] | 38.1 µg/mL | 54.3 µg/mL | – | 51.2 µg/mL | – | – | 6.0 fold | significantly increased SEAP activity | weakly enhanced | little effects | ~3.5 | decreased | induced apoptosis |
| C[C@@H]1O[C@@H](Oc2c(-c3ccc(O)c(O)c3)oc3cc(O)cc(O)c3c2=O)[C@H](O)[C@H](O)[C@H]1O [Quercitrin] | > 100 µg/mL | > 100 µg/mL | – | > 100 µg/mL | some significant anti-oestrogenic effects | – | – | neither quercitrin nor 3 alone significantly enhanced SEAP activity | – | – | – | – | – |

Further lines, with some results ahead:

| IC50 (AGS cells) | IC50 (MCF-7 cells [1]) | IC50 (full-length ERβ) | SMILES | IC50 (NCI-N87 cells) | SEAP activity in combination with E2 [2] | SEAP expression in the presence of ICI 182,780 ([2]; 1 μM compound + 1 μM ICI 182,780) | fold increase in SEAP expression [2] | SEAP reporter gene expression/activity, compound alone [2] | caspase 8 activity (caspase 8 in MCF-7 cells) | Bax mRNA expression [3] | Bax/Bcl-2 ratio [3] | Bcl-2 mRNA expression [3] | apoptosis in MCF-7 cells (MCF-7 cells [4]) |
| --- | --- | --- | --- | --- | --- | --- | --- | --- | --- | --- | --- | --- | --- |
| > 100 µg/mL | > 100 µg/mL | 390 µM | Cc1c(O)c(C)c2oc(Oc3ccc(O)cc3)cc(=O)c2c1O [Compound 1, 2-(p-hydroxyphenoxy)-6,8-dimethyl-5,7-dihydroxychromone] | > 100 µg/mL | did not enhance SEAP activity | attenuated | 6.2 fold | significantly enhanced | – | – | – | – | – |
| 18.6 µg/mL | 1.37 µg/mL | – | O=c1[nH]cc(F)c(=O)[nH]1 [Compound 5FU, 5-fluorouracil, reference compound] | 0.097 µg/mL | – | – | – | – | – | – | – | – | – |
